Results: ChEMBL document CHEMBL3885861, “Open TG-GATES”

Organism: Rattus norvegicus
Assay: Open TG-GATES - Regimen: Single
Type: toxicity, organism-based, Sprague-Dawley
Parameters: regimen Single, gender Male, age 6 weeks
Conditions: in vivo, po, 0 mg/kg, route gavage, dose level Control; for APTT / Bas / Eos / Fbg / Hb / Ht / Lym / MCH / MCHC / MCV / Mono / Neu / PT / Plat / RBC / Ret / WBC: tissue Blood; for KIDNEY_L / KIDNEY_R / KIDNEY_TOTAL: tissue Kidney; for LIVER: tissue Liver; for A/G / ALP / ALT / AST / BUN / CRE / Ca / Cl / DBIL / GLC / IP / K / LDH / Na / PL / RALB / TBIL / TC / TG / TP / gamma-GTP: tissue Plasma

CC(CN1c2ccccc2Sc2ccccc21)N(C)C (configuration not stated) [PROMETHAZINE]
TERMINAL_BW (3 h): 213.5 g | APTT (3 h): 22.4 s | Bas (3 h): 0% | Eos (3 h): 0.8% | Fbg (3 h): 333.6 mg/dL | Hb (3 h): 13 g/dL | Ht (3 h): 39.9% | Lym (3 h): 81.4% | MCH (3 h): 20.6 pg | MCHC (3 h): 32.6% | MCV (3 h): 63.4 fL | Mono (3 h): 2.4% | Neu (3 h): 15.2% | PT (3 h): 16.4 s | Plat (3 h): 117.1 x10_4/uL | RBC (3 h): 629.4 x10_4/ul | Ret (3 h): 8.5% | WBC (3 h): 94.5 x10_2/uL | KIDNEY_L (3 h): 0.9 g | KIDNEY_R (3 h): 1 g | KIDNEY_TOTAL (3 h): 1.9 g | LIVER (3 h): 9.9 g | A/G (3 h): 1.2 | ALP (3 h): 1819.4 IU/L | ALT (3 h): 42.8 IU/L | AST (3 h): 76 IU/L | BUN (3 h): 12.8 mg/dL | CRE (3 h): 0.2 mg/dL | Ca (3 h): 10.9 mg/dL | Cl (3 h): 105.8 meq/L | DBIL (3 h): 0 mg/dL | GLC (3 h): 190.4 mg/dL | IP (3 h): 8.1 mg/dL | K (3 h): 4.4 meq/L | LDH (3 h): 234.4 IU/L | Na (3 h): 142.2 meq/L | PL (3 h): 134.2 mg/dL | RALB (3 h): 3 g/dL | TBIL (3 h): 0.016 mg/dL | TC (3 h): 75 mg/dL | TG (3 h): 64.2 mg/dL | TP (3 h): 5.5 g/dL | gamma-GTP (3 h): 1.2 IU/L | TERMINAL_BW (6 h): 210.9 g | APTT (6 h): 22.7 s | Bas (6 h): 0% | Eos (6 h): 1% | Fbg (6 h): 310.8 mg/dL | Hb (6 h): 13.3 g/dL | Ht (6 h): 39.9% | Lym (6 h): 82.6% | MCH (6 h): 20.9 pg | MCHC (6 h): 33.4% | MCV (6 h): 62.5 fL | Mono (6 h): 2.4% | Neu (6 h): 13.6% | PT (6 h): 16.7 s | Plat (6 h): 111.7 x10_4/uL | RBC (6 h): 639.6 x10_4/ul | Ret (6 h): 7.3% | WBC (6 h): 81.5 x10_2/uL | KIDNEY_L (6 h): 1 g | KIDNEY_R (6 h): 1 g | KIDNEY_TOTAL (6 h): 2 g | LIVER (6 h): 8.7 g | A/G (6 h): 1.3 | ALP (6 h): 1393.4 IU/L | ALT (6 h): 41.4 IU/L | AST (6 h): 76.2 IU/L | BUN (6 h): 11.2 mg/dL | CRE (6 h): 0.2 mg/dL | Ca (6 h): 10.9 mg/dL | Cl (6 h): 104.8 meq/L | DBIL (6 h): 0 mg/dL | GLC (6 h): 186.2 mg/dL | IP (6 h): 9.4 mg/dL | K (6 h): 4.3 meq/L | LDH (6 h): 208.2 IU/L | Na (6 h): 141.2 meq/L | PL (6 h): 133.8 mg/dL | RALB (6 h): 3 g/dL | TBIL (6 h): 0.018 mg/dL | TC (6 h): 83.2 mg/dL | TG (6 h): 53 mg/dL | TP (6 h): 5.4 g/dL | gamma-GTP (6 h): 1.8 IU/L | TERMINAL_BW (9 h): 207.6 g | APTT (9 h): 22.2 s | Bas (9 h): 0% | Eos (9 h): 0.8% | Fbg (9 h): 318.8 mg/dL | Hb (9 h): 13.1 g/dL | Ht (9 h): 40.1% | Lym (9 h): 80% | MCH (9 h): 20.8 pg | MCHC (9 h): 32.6% | MCV (9 h): 64 fL | Mono (9 h): 3% | Neu (9 h): 15.6% | PT (9 h): 16.7 s | Plat (9 h): 123.9 x10_4/uL | RBC (9 h): 627.6 x10_4/ul | Ret (9 h): 8.1% | WBC (9 h): 107.3 x10_2/uL | KIDNEY_L (9 h): 1 g | KIDNEY_R (9 h): 1 g | KIDNEY_TOTAL (9 h): 1.9 g | LIVER (9 h): 8.7 g | A/G (9 h): 1.2 | ALP (9 h): 1357.2 IU/L | ALT (9 h): 38.8 IU/L | AST (9 h): 68 IU/L | BUN (9 h): 12.4 mg/dL | CRE (9 h): 0.2 mg/dL | Ca (9 h): 10.6 mg/dL | Cl (9 h): 104.6 meq/L | DBIL (9 h): 0.004 mg/dL | GLC (9 h): 191.2 mg/dL | IP (9 h): 10 mg/dL | K (9 h): 4.5 meq/L | LDH (9 h): 237.8 IU/L | Na (9 h): 140.4 meq/L | PL (9 h): 125.8 mg/dL | RALB (9 h): 3 g/dL | TBIL (9 h): 0.016 mg/dL | TC (9 h): 73.2 mg/dL | TG (9 h): 55 mg/dL | TP (9 h): 5.4 g/dL | gamma-GTP (9 h): 1.2 IU/L | TERMINAL_BW (24 h): 222 g | APTT (24 h): 22.1 s | Bas (24 h): 0% | Eos (24 h): 0.8% | Fbg (24 h): 326.8 mg/dL | Hb (24 h): 13.5 g/dL | Ht (24 h): 40.2% | Lym (24 h): 81.6% | MCH (24 h): 20.8 pg | MCHC (24 h): 33.5% | MCV (24 h): 62.2 fL | Mono (24 h): 2% | Neu (24 h): 14.8% | PT (24 h): 17 s | Plat (24 h): 131.7 x10_4/uL | RBC (24 h): 647.6 x10_4/ul | Ret (24 h): 7.2% | WBC (24 h): 130.1 x10_2/uL | KIDNEY_L (24 h): 1 g | KIDNEY_R (24 h): 1 g | KIDNEY_TOTAL (24 h): 2 g | LIVER (24 h): 10.5 g | A/G (24 h): 1.3 | ALP (24 h): 1690.8 IU/L | ALT (24 h): 44.2 IU/L | AST (24 h): 73.2 IU/L | BUN (24 h): 15.8 mg/dL | CRE (24 h): 0.2 mg/dL | Ca (24 h): 11 mg/dL | Cl (24 h): 106.6 meq/L | DBIL (24 h): 0 mg/dL | GLC (24 h): 192.6 mg/dL | IP (24 h): 7.2 mg/dL | K (24 h): 4.4 meq/L | LDH (24 h): 180.6 IU/L | Na (24 h): 142.4 meq/L | PL (24 h): 141.4 mg/dL | RALB (24 h): 3.1 g/dL | TBIL (24 h): 0.004 mg/dL | TC (24 h): 74.4 mg/dL | TG (24 h): 95.8 mg/dL | TP (24 h): 5.5 g/dL | gamma-GTP (24 h): 1.4 IU/L
